Each block holds one compound with its values, some of them ahead of it. Calls of active or inactive are those of the source. No cut-off for these calls is given here.
Key:
[1] = system: NIH3T3; experiment: Induction of cell cycle arrest in mouse NIH3T3 cells by propidium iodide staining based flow cytometry analysis; format: toxicity
[2] = system: NIH3T3; experiment: Inhibition of CAMK-II in mouse NIH3T3 cells assessed as decrease in cell number by MTT assay; format: cell-based
[3] = system: NIH3T3; experiment: (§1) Inhibition of CAMK-II in mouse NIH3T3 cells using autocamtide-2 as substrate […]; format: cell-based
[4] = system: NIH3T3; experiment: Induction of apoptosis in mouse NIH3T3 cells assessed as decreased cell viability in presence of terminal transferase and Fl-dUTP by TUNEL staining based fluorescence microscopy analysis; format: toxicity; details: dose lower 10 µM, time lower 2 day, dose upper 24 µM, time upper 3 day
[5] = Inhibition of CAMK-II in mouse NIH3T3 cells assessed as growth inhibition incubated for 2 to 3 days by phase contrast microscopy analysis; format: cell-based
[6] = system: NIH3T3; experiment: Inhibition of CAMK-II in mouse NIH3T3 cells assessed as morphological changes at 10 to 24 uM incubated for 1 day in presence of fetal bovine serum by phase contrast microscopy analysis; format: cell-based; details: dose 10-24 µM
[7] = system: NIH3T3; experiment: Inhibition of CAMK-II in mouse NIH3T3 cells assessed as accumulation of granules in presence of fetal bovine serum by phase contrast microscopy analysis; format: cell-based
[8] = system: NIH3T3; experiment: Inhibition of CAMK-II in mouse NIH3T3 cells assessed as decrease in cell count at 24 uM incubated for 2 to 3 days in presence of fetal bovine serum by phase contrast microscopy analysis; format: cell-based; details: time 2-3 day
[9] = system: NIH3T3; experiment: Inhibition of CAMK-II in mouse NIH3T3 cells assessed as inhibition of cell growth at 4 to 8 uM incubated for 3 days by MTT assay; format: cell-based; details: dose 4-8 µM, time 3.0 day
[10] = system: NIH3T3; experiment: Inhibition of CAMK-II in mouse NIH3T3 cells assessed as decrease in cell number at 16 to 24 uM incubated for 3 days by MTT assay; format: cell-based; details: dose 16-24 µM, time 3.0 day
[11] = system: NIH3T3; experiment: Inhibition of CAMK-II in mouse NIH3T3 cells assessed as cell growth rate after compound rinsing at 4 to 16 uM incubated for 6 to 48 hrs by MTT assay; format: cell-based; details: dose 4-16 µM, time 6-48 hrs
[12] = as §1; format: cell-based
[13] = system: NIH3T3; experiment: Induction of cell cycle arrest in mouse NIH3T3 cells assessed as accumulation of cells at G1 phase at 10 uM incubated for 1 day by propidium iodide staining based flow cytometry analysis (reference value: 54 %); format: toxicity; details: nih3t3, 24 h
[14] = system: NIH3T3; experiment: Induction of cell cycle arrest in mouse NIH3T3 cells assessed as accumulation of cells at G1 phase at 10 uM incubated for 2 to 3 day by propidium iodide staining based flow cytometry analysis (reference value: 54 %); format: toxicity; details: nih3t3, 10 µM, time 2-3 day
[15] = system: NIH3T3; experiment: Induction of cell cycle arrest in mouse NIH3T3 cells assessed as decreased accumulation of cells at S phase at 10 uM incubated for 1 to 3 days by propidium iodide staining based flow cytometry analysis; format: toxicity; details: nih3t3, 10 µM, time 1-3 day
[16] = system: NIH3T3; experiment: Induction of cell cycle arrest in mouse NIH3T3 cells assessed as accumulation of cells at S phase at 10 uM incubated for 44 hrs followed by compound washout for 22 hrs by propidium iodide staining based flow cytometry analysis; format: toxicity; details: nih3t3, 44 h
[17] = system: NIH3T3; experiment: Induction of cell cycle arrest in mouse NIH3T3 cells assessed as decreased accumulation of cells at G2 phase at 10 uM incubated for 1 to 3 days by propidium iodide staining based flow cytometry analysis; format: toxicity; details: nih3t3, 10 µM, time 1-3 day
[18] = system: NIH3T3; experiment: Induction of cell cycle arrest in mouse NIH3T3 cells assessed as accumulation of cells at G2/M phase at 10 uM incubated for 44 hrs followed by compound washout for 22 hrs by propidium iodide staining based flow cytometry analysis; format: toxicity; details: nih3t3, 44 h
[19] = system: NIH3T3; experiment: Induction of cell cycle arrest in mouse NIH3T3 cells assessed as accumulation of cells at G1 phase at 24 uM incubated for 3 days by propidium iodide staining based flow cytometry analysis; format: toxicity; details: nih3t3, 72 h, time 3 day
[20] = system: NIH3T3; experiment: Induction of cell cycle arrest in mouse NIH3T3 cells assessed as accumulation of hypodiploid cells at 24 uM incubated for 3 days by propidium iodide staining based flow cytometry analysis; format: toxicity; details: nih3t3, 72 h, time 3 day
[21] = system: NIH3T3; experiment: Cytotoxicity against PDGF-BB stimulated mouse NIH3T3 cells assessed as growth inhibition at 5 to 25 uM incubated for 72 hrs by MTT assay; format: functional, cell-based; details: dose 5-25 µM
[22] = system: NIH3T3; experiment: Cytotoxicity against FGF stimulated mouse NIH3T3 cells assessed as growth inhibition at 5 to 25 uM incubated for 72 hrs by MTT assay; format: functional, cell-based; details: dose 5-25 µM
[23] = system: NIH3T3; experiment: Cytotoxicity against EGF stimulated mouse NIH3T3 cells assessed as growth inhibition at 5 to 25 uM incubated for 72 hrs by MTT assay; format: functional, cell-based; details: dose 5-25 µM
[24] = system: NIH3T3; experiment: Cytotoxicity against IGF-1 stimulated mouse NIH3T3 cells assessed as growth inhibition at 5 to 25 uM incubated for 72 hrs by MTT assay; format: functional, cell-based; details: dose 5-25 µM
[25] = system: NIH3T3; experiment: Cytotoxicity against FGF stimulated mouse NIH3T3 cells assessed as decrease in cell number at 2 uM incubated for 72 hrs by MTT assay relative to control; format: functional; parameters: scale not given: the % may be the effect or the level left
[26] = system: NIH3T3; experiment: Cytotoxicity against serum stimulated mouse NIH3T3 cells assessed as decrease in cell number at 2 uM incubated for 72 hrs by MTT assay relative to control; format: functional; parameters: scale not given: the % may be the effect or the level left
[27] = system: NIH3T3; experiment: Cytotoxicity against serum stimulated mouse NIH3T3 cells assessed as inhibition of cell growth incubated for 72 hrs by MTT assay; format: functional, cell-based; details: NIH3T3, 72 h
[28] = system: NIH3T3; experiment: Cytotoxicity against PDGF-BB stimulated mouse NIH3T3 cells assessed as growth inhibition incubated for 72 hrs by MTT assay; format: functional, cell-based; details: NIH3T3, 72 h
[29] = system: NIH3T3; experiment: Cytotoxicity against FGF stimulated mouse NIH3T3 cells assessed as growth inhibition incubated for 72 hrs by MTT assay; format: functional, cell-based; details: NIH3T3, 72 h
[30] = system: NIH3T3; experiment: Cytotoxicity against EGF stimulated mouse NIH3T3 cells assessed as growth inhibition incubated for 72 hrs by MTT assay; format: functional, cell-based; details: NIH3T3, 72 h
[31] = system: NIH3T3; experiment: Cytotoxicity against IGF-1 stimulated mouse NIH3T3 cells assessed as growth inhibition incubated for 72 hrs by MTT assay; format: functional, cell-based; details: NIH3T3, 72 h

Structure (SMILES): COc1ccc(S(=O)(=O)Nc2ccccc2CN(C)C/C=C/c2ccc(Cl)cc2)cc1
- Activity [1]: Not Active
- inhibition [2]: inactive
- inhibition [3]: inactive

- IC50 [12]: 12 µM
Structure (SMILES): COc1ccc(S(=O)(=O)N(CCO)c2ccccc2CN(C)C/C=C/c2ccc(Cl)cc2)cc1
- Activity [4]: Dose-Dependent Effect and Tde
- IC50 [5]: 1 µM
- inhibition [6]: Active
- inhibition [7]: Active
- inhibition [8]: Active
- inhibition [9]: Active
- inhibition [10]: Active
- inhibition [11]: inactive
- inhibition [2]: Active
- Activity [13]: 79%
- Activity [14]: 95%
- Activity [15]: Toxic
- Activity [16]: Non-Toxic
- Activity [17]: Toxic
- Activity [18]: Non-Toxic
- Activity [19]: Toxic
- Activity [20]: Toxic
- Activity [21]: Active
- Activity [22]: Active
- Activity [23]: Active
- Activity [24]: Active
- Activity [25]: 35%
- Activity [26]: 4%
- IC50 [27]: 12 µM
- IC50 [28]: 6 µM
- IC50 [29]: 6 µM
- IC50 [30]: 6 µM
- IC50 [31]: 6 µM

Source: ChEMBL document CHEMBL5653633, “G1 cell cycle arrest and apoptosis are induced in NIH 3T3 cells by KN-93, an inhibitor of CaMK-II (the multifunctional Ca2+/CaM kinase)” (Cell Growth Differ, 1995)
